The values that follow come from ChEMBL document CHEMBL5096208, “Installation of Pargyline, a LSD1 Inhibitor, in the HDAC Inhibitory Template Culminated in the Identification of a Tractable Antiprostate Cancer Agent” (J Med Chem, 2021).

Active and inactive are the calls of the source. The rule behind the calls is not given here.

The species named for one data set is Homo sapiens. As to the kind of experiment: Selectivity ratio of IC50 for human HDAC10 to IC50 for human HDAC6.
The nature of data set [1]: Metabolic stability in human hepatocyte assessed as parent compound remaining at 10 uM by LC-MS/MS analysis. The conditions noted are these: hepatocytes, read-out: Stability. The data set is classed as ADME, cell-based.
The subject of another data set is PC-3. As to the kind of experiment: Upregulation of acetyl-histone H3 in human PC-3 cells at 0.625 to 5 uM by Western blot analysis. The class given is functional, cell-based. The settings on record: dose 0.625-5 µM. In general terms: A western blot detects proteins with antibodies after separation by electrophoresis.
The target in data set [2] is T1, Polyamine deacetylase HDAC10 (Homo sapiens, UniProt Q969S8).
T1 sequence (Q969S8 whole entry): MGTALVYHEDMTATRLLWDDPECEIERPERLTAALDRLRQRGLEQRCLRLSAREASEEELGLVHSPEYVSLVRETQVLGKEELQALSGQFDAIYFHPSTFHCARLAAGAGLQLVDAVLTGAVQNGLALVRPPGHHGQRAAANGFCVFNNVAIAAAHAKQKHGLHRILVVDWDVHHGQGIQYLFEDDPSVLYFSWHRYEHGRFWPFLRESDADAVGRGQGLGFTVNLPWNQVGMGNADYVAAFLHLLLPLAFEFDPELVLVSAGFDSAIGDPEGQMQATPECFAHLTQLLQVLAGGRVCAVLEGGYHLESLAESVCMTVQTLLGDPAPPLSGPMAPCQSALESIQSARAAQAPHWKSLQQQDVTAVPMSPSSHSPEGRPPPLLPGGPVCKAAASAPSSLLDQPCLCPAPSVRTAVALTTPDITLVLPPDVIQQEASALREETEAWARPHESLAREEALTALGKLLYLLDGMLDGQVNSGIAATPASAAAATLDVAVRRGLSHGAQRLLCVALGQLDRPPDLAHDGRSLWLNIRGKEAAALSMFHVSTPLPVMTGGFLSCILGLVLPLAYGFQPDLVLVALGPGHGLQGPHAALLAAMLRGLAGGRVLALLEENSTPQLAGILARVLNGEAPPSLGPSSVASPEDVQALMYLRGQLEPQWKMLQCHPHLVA
As to the kind of experiment: Inhibition of human HDAC10 using Ac-Spermidine-AMC as flurogenic substrate.

Data set [3] in a line: Metabolic stability in Sprague-Dawley rat hepatocyte assessed as parent compound remaining at 10 uM incubated for 120 mins by LC-MS/MS analysis. The data set is classed as ADME, cell-based. The conditions noted are these: hepatocytes, read-out: Stability.
Data set [4] deals with T2, Protein deacetylase HDAC6 (Homo sapiens, UniProt Q9UBN7).
T2 sequence (Q9UBN7 whole entry): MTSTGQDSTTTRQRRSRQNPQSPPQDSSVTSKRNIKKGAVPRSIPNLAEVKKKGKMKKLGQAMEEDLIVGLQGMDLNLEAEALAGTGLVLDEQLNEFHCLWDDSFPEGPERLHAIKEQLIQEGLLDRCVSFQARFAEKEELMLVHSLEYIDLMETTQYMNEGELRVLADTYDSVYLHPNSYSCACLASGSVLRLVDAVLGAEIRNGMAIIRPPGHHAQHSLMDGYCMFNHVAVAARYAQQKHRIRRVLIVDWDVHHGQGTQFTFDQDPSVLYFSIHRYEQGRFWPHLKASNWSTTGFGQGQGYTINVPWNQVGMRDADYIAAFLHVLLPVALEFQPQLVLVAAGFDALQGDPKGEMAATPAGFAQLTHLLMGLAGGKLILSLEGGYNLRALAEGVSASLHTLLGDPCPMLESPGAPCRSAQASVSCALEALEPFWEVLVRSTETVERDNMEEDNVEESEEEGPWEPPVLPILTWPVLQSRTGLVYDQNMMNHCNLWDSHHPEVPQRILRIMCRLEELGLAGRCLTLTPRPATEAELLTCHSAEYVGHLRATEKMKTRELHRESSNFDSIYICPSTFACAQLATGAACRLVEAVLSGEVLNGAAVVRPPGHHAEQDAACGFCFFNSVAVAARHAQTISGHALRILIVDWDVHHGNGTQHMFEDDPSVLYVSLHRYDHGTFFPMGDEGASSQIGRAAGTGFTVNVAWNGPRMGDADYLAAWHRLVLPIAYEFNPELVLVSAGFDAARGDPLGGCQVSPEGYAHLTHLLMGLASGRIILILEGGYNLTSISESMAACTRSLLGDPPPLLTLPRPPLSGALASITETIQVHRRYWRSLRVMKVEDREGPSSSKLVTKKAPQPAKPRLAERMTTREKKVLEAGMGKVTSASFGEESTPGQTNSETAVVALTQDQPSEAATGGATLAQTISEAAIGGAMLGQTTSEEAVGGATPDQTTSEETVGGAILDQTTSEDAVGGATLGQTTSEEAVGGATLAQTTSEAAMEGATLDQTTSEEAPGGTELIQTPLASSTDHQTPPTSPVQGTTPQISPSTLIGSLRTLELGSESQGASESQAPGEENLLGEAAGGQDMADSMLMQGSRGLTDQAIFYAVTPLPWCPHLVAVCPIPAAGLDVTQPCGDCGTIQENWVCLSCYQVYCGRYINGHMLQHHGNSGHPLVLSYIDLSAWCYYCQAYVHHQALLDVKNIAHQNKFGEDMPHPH
Kind of data set: Inhibition of human HDAC6 (379 to 382 residues) using RHKKAc as flurogenic substrate.

As a reminder, the IC50 is the concentration at which inhibition is half-maximal.

As for `C#CCN(C)Cc1cccc(NC(=O)CCCCCCC(=O)NO)c1`, the Ratio IC50 in the data set filed under Homo sapiens worked out at 18.7. Moreover, in data set [1], the remaining at 10 µM stood at 100%. In addition, in the data set on PC-3, the outcome was Active. For the same molecule, the values for the IC50 in data set [2] and in data set [4] were 374 nM and 20 nM, respectively. Besides, the remaining at 2 h, 10 µM in data set [3] amounted to 35.9%.
